Measurements taken from patent US9393193B2, “Compositions for controlling heartworm infestation” (CEVA SANTA ANIMALE, priority 2010, dated 2016).

Legend:
[1] = beagle dogs, cited from earlier work
Dirofilaria larvae = conditions: cited from earlier work
Dirofilaria = experiment: Effective plasma rate of ivermectin established by the applicant; assay type: in vivo
From the text: Thus, the formulations according to the present invention provide a long term protection, e.g., at least 6 months for the collar, strip collar, or medallion formulation against infections caused by parasites.

[2] = estimated from reports from non recommended use; cited from earlier work
[3] = 14-week oral, cited from earlier work

ivermectin
Time course of H2B1a concentration in plasma ([1]; oral 0.5 and 2.0 mg/kg bw): reached steady-state after about three weeks | Average increase in plasma levels on a four-fold increase in the dose ([1]; oral 0.5 vs 2.0 mg/kg bw): eight-fold increase | Effective rate of ivermectin in the plasma (Dirofilaria larvae; Cunningham C P et al., Am. J. Vet. Res., 2006): ≥ 0.2 ng/mL | Effect on one month aged Dirofilaria larvae (Dirofilaria larvae; ivermectin per se at 6 mcg/kg): able to kill efficiency one month aged Dirofilaria larvae | Effective rate of ivermectin in the plasma (Dirofilaria): around 0.1 ng/mL | Share of collie dogs highly sensitive to ivermectin [2]: Approximately 30% | Severe findings, dogs killed prior to the end of the study ([3]; 2.0 mg/kg bw group, four dogs): tremors, ataxia, anorexia and dehydration | Findings observed ([3]; 1.0 and 2.0 mg/kg bw, beagle dogs): mydriasis and slight weight loss | No Observable Effect Level (NOEL) ([3]; beagle dogs): 0.5 mg/kg bw
